Measured values published in ChEMBL document CHEMBL1671627, “Increasing trends in antimicrobial resistance among clinically important anaerobes and Bacteroides fragilis isolates causing nosocomial infections: emerging resistance to carbapenems” (2008).

Assays:
Bacteroides fragilis [1] = experiment: Antibacterial activity against Bacteroides fragilis assessed as susceptible isolates by CLSI agar dilution method; format: functional
Bacteroides fragilis [2] = experiment: Antibacterial activity against Bacteroides fragilis assessed as resistant isolates by CLSI agar dilution method; format: functional
[3] = tested on: Bacteroides thetaiotaomicron; experiment: Antibacterial activity against beta-lactamase producing Bacteroides thetaiotaomicron assessed as susceptible isolates by CLSI agar dilution method; format: functional
[4] = tested on: Bacteroides thetaiotaomicron; experiment: Antibacterial activity against beta-lactamase producing Bacteroides thetaiotaomicron assessed as resistant isolates by CLSI agar dilution method; format: functional
Phocaeicola vulgatus [5] = experiment: Antibacterial activity against beta-lactamase producing Bacteroides vulgatus by CLSI agar dilution method; format: functional
Phocaeicola vulgatus [6] = experiment: Antibacterial activity against beta-lactamase producing Bacteroides vulgatus assessed as susceptible isolates by CLSI agar dilution method; format: functional
Phocaeicola vulgatus [7] = experiment: Antibacterial activity against beta-lactamase producing Bacteroides vulgatus assessed as resistant isolates by CLSI agar dilution method; format: functional
Bacteroides uniformis [8] = experiment: Antibacterial activity against beta-lactamase producing Bacteroides uniformis by CLSI agar dilution method; format: functional
Bacteroides uniformis [9] = experiment: Antibacterial activity against beta-lactamase producing Bacteroides uniformis assessed as susceptible isolates by CLSI agar dilution method; format: functional
Bacteroides uniformis [10] = experiment: Antibacterial activity against beta-lactamase producing Bacteroides uniformis assessed as resistant isolates by CLSI agar dilution method; format: functional
Bacteroides caccae [11] = experiment: Antibacterial activity against beta-lactamase producing Bacteroides caccae by CLSI agar dilution method; format: functional
Bacteroides caccae [12] = experiment: Antibacterial activity against beta-lactamase producing Bacteroides caccae assessed as susceptible isolates by CLSI agar dilution method; format: functional
Bacteroides caccae [13] = experiment: Antibacterial activity against beta-lactamase producing Bacteroides caccae assessed as resistant isolates by CLSI agar dilution method; format: functional
Fusobacterium varium [14] = experiment: Antibacterial activity against Fusobacterium varium by CLSI agar dilution method; format: functional
Fusobacterium nucleatum [15] = experiment: Antibacterial activity against Fusobacterium nucleatum by CLSI agar dilution method; format: functional
Fusobacterium mortiferum [16] = experiment: Antibacterial activity against Fusobacterium mortiferum by CLSI agar dilution method; format: functional
[17] = tested on: Fusobacterium necrophorum; experiment: Antibacterial activity against Fusobacterium necrophorum by CLSI agar dilution method; format: functional
Fusobacterium varium [18] = experiment: Antibacterial activity against Fusobacterium varium assessed as susceptible isolates by CLSI agar dilution method; format: functional
Fusobacterium nucleatum [19] = experiment: Antibacterial activity against Fusobacterium nucleatum assessed as susceptible isolates by CLSI agar dilution method; format: functional
Fusobacterium mortiferum [20] = experiment: Antibacterial activity against Fusobacterium mortiferum assessed as susceptible isolates by CLSI agar dilution method; format: functional
[21] = tested on: Fusobacterium necrophorum; experiment: Antibacterial activity against Fusobacterium necrophorum assessed as susceptible isolates by CLSI agar dilution method; format: functional
Fusobacterium varium [22] = experiment: Antibacterial activity against Fusobacterium varium assessed as resistant isolates by CLSI agar dilution method; format: functional
Fusobacterium nucleatum [23] = experiment: Antibacterial activity against Fusobacterium nucleatum assessed as resistant isolates by CLSI agar dilution method; format: functional
Fusobacterium mortiferum [24] = experiment: Antibacterial activity against Fusobacterium mortiferum assessed as resistant isolates by CLSI agar dilution method; format: functional
[25] = tested on: Fusobacterium necrophorum; experiment: Antibacterial activity against Fusobacterium necrophorum assessed as resistant isolates by CLSI agar dilution method; format: functional
Prevotella buccae [26] = experiment: Antibacterial activity against Prevotella buccae by CLSI agar dilution method; format: functional; conditions: Segatella buccae
Prevotella bivia [27] = experiment: Antibacterial activity against Prevotella bivia by CLSI agar dilution method; format: functional
Prevotella intermedia [28] = experiment: Antibacterial activity against Prevotella intermedia by CLSI agar dilution method; format: functional
[29] = tested on: Prevotella melaninogenica; experiment: Antibacterial activity against Prevotella melaninogenica by CLSI agar dilution method; format: functional
Prevotella buccae [30] = experiment: Antibacterial activity against Prevotella buccae assessed as susceptible isolates by CLSI agar dilution method; format: functional, Segatella buccae
Prevotella bivia [31] = experiment: Antibacterial activity against Prevotella bivia assessed as susceptible isolates by CLSI agar dilution method; format: functional
Prevotella intermedia [32] = experiment: Antibacterial activity against Prevotella intermedia assessed as susceptible isolates by CLSI agar dilution method; format: functional
[33] = tested on: Prevotella melaninogenica; experiment: Antibacterial activity against Prevotella melaninogenica assessed as susceptible isolates by CLSI agar dilution method; format: functional
Prevotella buccae [34] = experiment: Antibacterial activity against Prevotella buccae assessed as resistant isolates by CLSI agar dilution method; format: functional, Segatella buccae
Prevotella bivia [35] = experiment: Antibacterial activity against Prevotella bivia assessed as resistant isolates by CLSI agar dilution method; format: functional
Prevotella intermedia [36] = experiment: Antibacterial activity against Prevotella intermedia assessed as resistant isolates by CLSI agar dilution method; format: functional
[37] = tested on: Prevotella melaninogenica; experiment: Antibacterial activity against Prevotella melaninogenica assessed as resistant isolates by CLSI agar dilution method; format: functional
Veillonella parvula = experiment: Antibacterial activity against Veillonella parvula by CLSI agar dilution method; format: functional
Clostridium perfringens = experiment: microbe, parasite or virus in culture; format: functional
[38] = tested on: Clostridium paraputrificum; experiment: Antibacterial activity against beta-lactamase producing Clostridium paraputrificum by CLSI agar dilution method; format: functional
Clostridium septicum [39] = experiment: Antibacterial activity against beta-lactamase producing Clostridium septicum by CLSI agar dilution method; format: functional
Clostridium tertium [40] = experiment: Antibacterial activity against beta-lactamase producing Clostridium tertium by CLSI agar dilution method; format: functional
[41] = tested on: Clostridium paraputrificum; experiment: Antibacterial activity against beta-lactamase producing Clostridium paraputrificum assessed as susceptible isolates by CLSI agar dilution method; format: functional
Clostridium septicum [42] = experiment: Antibacterial activity against beta-lactamase producing Clostridium septicum assessed as susceptible isolates by CLSI agar dilution method; format: functional
Clostridium tertium [43] = experiment: Antibacterial activity against beta-lactamase producing Clostridium tertium assessed as susceptible isolates by CLSI agar dilution method; format: functional
Bacteroides fragilis [44] = experiment: Antibacterial activity against Bacteroides fragilis by CLSI agar dilution method; format: functional
[45] = tested on: Bacteroides thetaiotaomicron; experiment: Antibacterial activity against beta-lactamase producing Bacteroides thetaiotaomicron by CLSI agar dilution method; format: functional
[46] = tested on: Clostridium paraputrificum; experiment: Antibacterial activity against beta-lactamase producing Clostridium paraputrificum assessed as resistant isolates by CLSI agar dilution method; format: functional
Clostridium septicum [47] = experiment: Antibacterial activity against beta-lactamase producing Clostridium septicum assessed as resistant isolates by CLSI agar dilution method; format: functional
Clostridium tertium [48] = experiment: Antibacterial activity against beta-lactamase producing Clostridium tertium assessed as resistant isolates by CLSI agar dilution method; format: functional
[49] = tested on: Peptostreptococcus anaerobius; experiment: Antibacterial activity against beta-lactamase producing Peptostreptococcus anaerobius by CLSI agar dilution method; format: functional
[50] = tested on: Peptostreptococcus anaerobius; experiment: Antibacterial activity against beta-lactamase producing Peptostreptococcus anaerobius assessed as susceptible isolates by CLSI agar dilution method; format: functional
[51] = tested on: Peptostreptococcus anaerobius; experiment: Antibacterial activity against beta-lactamase producing Peptostreptococcus anaerobius assessed as resistant isolates by CLSI agar dilution method; format: functional
Parvimonas micra [52] = experiment: Antibacterial activity against beta-lactamase producing Micromonas micros by CLSI agar dilution method; format: functional
Parvimonas micra [53] = experiment: Antibacterial activity against beta-lactamase producing Micromonas micros assessed as susceptible isolates by CLSI agar dilution method; format: functional
Parvimonas micra [54] = experiment: Antibacterial activity against beta-lactamase producing Micromonas micros assessed as resistant isolates by CLSI agar dilution method; format: functional
[55] = tested on: Peptoniphilus asaccharolyticus; experiment: Antibacterial activity against beta-lactamase producing Peptoniphilus asaccharolyticus by CLSI agar dilution method; format: functional
[56] = tested on: Peptoniphilus asaccharolyticus; experiment: Antibacterial activity against beta-lactamase producing Peptoniphilus asaccharolyticus assessed as susceptible isolates by CLSI agar dilution method; format: functional
[57] = tested on: Peptoniphilus asaccharolyticus; experiment: Antibacterial activity against beta-lactamase producing Peptoniphilus asaccharolyticus assessed as resistant isolates by CLSI agar dilution method; format: functional
Finegoldia magna [58] = experiment: Antibacterial activity against beta-lactamase producing Finegoldia magna by CLSI agar dilution method; format: functional
Finegoldia magna [59] = experiment: Antibacterial activity against beta-lactamase producing Finegoldia magna assessed as susceptible isolates by CLSI agar dilution method; format: functional
Finegoldia magna [60] = experiment: Antibacterial activity against beta-lactamase producing Finegoldia magna assessed as resistant isolates by CLSI agar dilution method; format: functional

C[C@@H](O)[C@H]1C(=O)N2C(C(=O)O)=C(S[C@@H]3CN[C@H](C(=O)N(C)C)C3)[C@H](C)[C@H]12 [MEROPENEM]
0%: Activity [4] | Activity (Prevotella buccae [34]) | Activity (Prevotella bivia [35]) | Activity (Prevotella intermedia [36]) | Activity [37] | Activity [46] | Activity (Clostridium septicum [47]) | Activity (Clostridium tertium [48]) | Activity [51] | Activity (Parvimonas micra [54]) | Activity [57] | Activity (Finegoldia magna [60])
96%: Activity (Phocaeicola vulgatus [6]) | Activity (Bacteroides uniformis [9]) | Activity (Bacteroides caccae [12])
92%: Activity (Fusobacterium varium [18]) | Activity (Fusobacterium nucleatum [19]) | Activity (Fusobacterium mortiferum [20]) | Activity [21]
100%: Activity (Prevotella buccae [30]) | Activity (Prevotella bivia [31]) | Activity (Prevotella intermedia [32]) | Activity [33] | Activity [41] | Activity (Clostridium septicum [42]) | Activity (Clostridium tertium [43]) | Activity [50] | Activity (Parvimonas micra [53]) | Activity [56] | Activity (Finegoldia magna [59])
0.25 µg/mL: MIC90 (Prevotella buccae [26]) | MIC90 (Prevotella bivia [27]) | MIC90 (Prevotella intermedia [28]) | MIC90 [29] | MIC50 [45]
5%: Activity (Bacteroides fragilis [2])
4%: Activity (Phocaeicola vulgatus [7]) | Activity (Bacteroides uniformis [10]) | Activity (Bacteroides caccae [13])
8 µg/mL: MIC90 (Bacteroides fragilis [44])
0.06 µg/mL: MIC50 (Fusobacterium varium [14]) | MIC50 (Fusobacterium nucleatum [15]) | MIC50 (Fusobacterium mortiferum [16]) | MIC50 [17] | MIC (Veillonella parvula) | MIC50 [49] | MIC50 (Parvimonas micra [52]) | MIC50 [55] | MIC50 (Finegoldia magna [58])
0.12 µg/mL: MIC90 (Fusobacterium varium [14]) | MIC90 (Fusobacterium nucleatum [15]) | MIC90 (Fusobacterium mortiferum [16]) | MIC90 [17] | MIC50 (Prevotella buccae [26]) | MIC50 (Prevotella bivia [27]) | MIC50 (Prevotella intermedia [28]) | MIC50 [29]
97%: Activity [3]
2 µg/mL: MIC90 (Phocaeicola vulgatus [5]) | MIC90 (Bacteroides uniformis [8]) | MIC90 (Bacteroides caccae [11]) | MIC90 (Clostridium perfringens) | MIC90 [38] | MIC90 (Clostridium septicum [39]) | MIC90 (Clostridium tertium [40]) | MIC90 [45]
0.03 µg/mL: MIC (Clostridium perfringens) | MIC50 (Clostridium perfringens) | MIC [38] | MIC50 [38] | MIC (Clostridium septicum [39]) | MIC50 (Clostridium septicum [39]) | MIC (Clostridium tertium [40]) | MIC50 (Clostridium tertium [40])
0.5 µg/mL: MIC50 (Phocaeicola vulgatus [5]) | MIC50 (Bacteroides uniformis [8]) | MIC50 (Bacteroides caccae [11]) | MIC90 [49] | MIC90 (Parvimonas micra [52]) | MIC90 [55] | MIC90 (Finegoldia magna [58])
0.28 µg/mL: MIC50 (Bacteroides fragilis [44])
8%: Activity (Fusobacterium varium [22]) | Activity (Fusobacterium nucleatum [23]) | Activity (Fusobacterium mortiferum [24]) | Activity [25]
88%: Activity (Bacteroides fragilis [1])
